{"source": "paper PMC10948969", "about": "(Nature cancer, 2023)", "key": {"[1]": {"system": "KIT, PDGFRα/β, VEGFR1/2, RET and FLT3", "assay": "Kinome profiling", "assay_type": "binding", "details": "in vitro kinome selectivity profile"}, "[2]": {"system": "MYC-Tp53 tumor organoid allografts", "assay": "MYC-Tp53 tumor organoid allografts in C57BL/6 mice", "assay_type": "in vivo, mouse", "details": "30 mg kg−1 daily oral gavage, treatment from 100 mm3"}, "[3]": {"system": "CTNNB1-mutated HCC (MYC-lucOS; CTNNB1)", "assay": "Hydrodynamic tail-vein", "assay_type": "in vivo, mouse", "details": "5 d on and 2 d off"}, "[4]": {"target": "p38 (MAPK14) (Homo sapiens, UniProt Q16539)", "sequence (Q16539 whole entry)": "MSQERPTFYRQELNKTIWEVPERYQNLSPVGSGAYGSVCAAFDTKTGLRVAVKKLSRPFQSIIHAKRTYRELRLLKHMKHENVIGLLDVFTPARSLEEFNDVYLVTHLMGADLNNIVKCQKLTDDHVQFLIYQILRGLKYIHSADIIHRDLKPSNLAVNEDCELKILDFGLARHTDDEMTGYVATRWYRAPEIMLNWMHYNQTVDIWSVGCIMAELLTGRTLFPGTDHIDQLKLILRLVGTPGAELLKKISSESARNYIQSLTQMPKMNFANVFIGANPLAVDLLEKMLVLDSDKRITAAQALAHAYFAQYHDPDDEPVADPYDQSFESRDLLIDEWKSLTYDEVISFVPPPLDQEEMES", "assay": "In vitro kinase assay with EZH2 T367 peptide, p38", "assay_type": "biochemical", "details": "inhibitor 1 μM, EZH2 peptide 1 μM"}, "[5]": {"system": "HEPG2 cells", "assay": "Drug toxicity", "assay_type": "cell-based, human", "details": "3 d"}, "[6]": {"assay": "Single-dose oral pharmacokinetics in BALB/c mice", "assay_type": "in vivo, mouse"}, "[7]": {"assay": "In vivo dose escalation / tolerability in mice"}, "[8]": {"target": "ERK1 (Homo sapiens, UniProt P27361)", "sequence (P27361 whole entry)": "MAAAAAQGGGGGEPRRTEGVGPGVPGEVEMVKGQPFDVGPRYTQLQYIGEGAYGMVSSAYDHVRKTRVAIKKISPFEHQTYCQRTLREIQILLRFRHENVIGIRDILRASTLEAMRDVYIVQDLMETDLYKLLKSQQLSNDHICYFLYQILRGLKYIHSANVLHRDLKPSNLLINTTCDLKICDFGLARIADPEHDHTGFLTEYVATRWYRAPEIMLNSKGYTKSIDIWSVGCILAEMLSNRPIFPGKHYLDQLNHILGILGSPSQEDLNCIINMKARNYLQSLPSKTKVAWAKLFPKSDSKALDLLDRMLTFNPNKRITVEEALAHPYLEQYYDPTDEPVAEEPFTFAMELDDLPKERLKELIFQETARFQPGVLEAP", "assay": "In vitro kinase assay with EZH2 T367 peptide, ERK", "assay_type": "biochemical", "details": "inhibitor 1 μM, EZH2 peptide 1 μM"}, "[9]": {"system": "WNT reporter (TOP-GFP)", "assay": "TOP-GFP Wnt reporter in MYC-CTNNB1 organoids", "assay_type": "cell-based, mouse", "details": "24 h after treatment"}, "[10]": {"system": "MYC-CTNNB1 tumor organoid allografts", "assay": "MYC-CTNNB1 tumor organoid allografts in C57BL/6 mice", "assay_type": "in vivo, mouse", "details": "30 mg kg−1 daily oral gavage, treatment from 100 mm3"}, "[11]": {"system": "MYC-CTNNB1 tumor organoids", "assay": "Drug toxicity", "assay_type": "cell-based, mouse"}}}
{"compound": "CNC(=O)c1cc(Oc2ccc(NC(=O)Nc3ccc(C(F)(F)C(F)(F)F)cc3)c(F)c2)ccn1", "note": "[WNTinib]", "values": [{"measurement": "inhibition of proposed key targets of sorafenib and regorafenib", "setting": "[1]", "result": "maintained potent inhibition"}, {"measurement": "anti-tumor activity", "setting": "[2]", "result": "inactive"}, {"measurement": "survival of remaining animals after the final dosing", "setting": "[3]; 20 mg kg−1 oral", "result": "> 300", "unit": "days"}, {"measurement": "fraction of treatment arm that succumbed to death", "setting": "[3]; 20 mg kg−1 oral, started 7 d post-injection", "result": 40, "unit": "%"}, {"measurement": "inhibition of EZH2 Thr367 peptide phosphorylation by p38", "setting": "[4]", "result": "did not inhibit this phosphorylation in vitro"}, {"measurement": "efficacy with drug-resistant p38α (Thr106Met) or BRAF (Thr529Asn)", "setting": "[5]; HEPG2 transduced with gatekeeper mutants vs parental", "result": "largely unchanged"}, {"measurement": "activity under MEK overexpression", "setting": "[5]; constitutively active MEK1 (Ser218Asp, Ser222Asp) in HEPG2", "result": "effectively eliminated WNTinib activity"}, {"measurement": "shift of IC50 by MKK6 overexpression", "setting": "[5]; constitutively active MKK6 (Ser207Glu, Thr211Glu) vs parental HEPG2", "result": "~ 30 fold"}, {"measurement": "efficacy under activated KIT overexpression", "setting": "[5]; doxycycline-inducible activated KIT double mutant in HEPG2", "result": "greatly reduced"}, {"measurement": "plasma concentration", "setting": "[6]; 24 h after oral dosing, 20 mg kg−1, BALB/c mice", "result": 7, "unit": "µM"}, {"measurement": "half-life", "setting": "[6]; BALB/c mice, oral, 20 mg kg−1", "result": 9.38, "unit": "h"}, {"measurement": "detectable quantities of drug in blood plasma post-dosing", "setting": "[6]; oral, 20 mg kg−1", "result": "up to 72 h"}, {"measurement": "phenotype on extended treatment", "setting": "[7]; mice treated for >3 weeks, consistent with on-target KIT inhibition", "result": "fur depigmentation"}, {"measurement": "signs of sickness or toxicity", "setting": "[7]; three mouse strains, dosed daily for 2 weeks, oral dose escalation", "result": "No mice showed signs of sickness, or evident toxicity in the liver, intestine or kidney"}, {"measurement": "inhibition of EZH2 Thr367 peptide phosphorylation by ERK", "setting": "[8]", "result": "did not inhibit this phosphorylation in vitro"}, {"measurement": "WNT-driven GFP reporter expression", "setting": "[9]", "result": "the only compound to downregulate WNT-driven GFP expression"}, {"measurement": "tumor regression", "setting": "[10]", "result": "induced significant tumor regression"}, {"measurement": "IC50", "setting": "[11]; read-out: IC50 in MYC-CTNNB1 organoids, without cKit knockdown, treated 3 d", "result": "< 1000", "unit": "nM"}, {"measurement": "combination index (CI) with dabrafenib", "setting": "[11]; titration of BRAF inhibitor dabrafenib, 3 d, CI > 1 = antagonized", "result": "> 1"}, {"measurement": "combination index (CI) with SCF", "setting": "[11]; titration of KIT ligand SCF, 3 d, CI >1 = antagonized", "result": "> 1"}, {"measurement": "combination index (CI) with SB202190", "setting": "[11]; titration of p38α/β inhibitor SB202190, 3 d, CI > 1 = antagonized", "result": "> 1"}]}
{"compound": "CNC(=O)c1cc(Oc2ccc(NC(=O)Nc3ccc(Cl)c(C(F)(F)F)c3)c(F)c2)ccn1", "note": "[regorafenib]", "values": [{"measurement": "anti-tumor activity", "setting": "[2]", "result": "measurable anti-tumor activity"}]}
{"compound": "CNC(=O)c1cc(Oc2ccc(NC(=O)Nc3ccc(Cl)c(C(F)(F)F)c3)cc2)ccn1", "note": "[sorafenib, reference compound]", "values": [{"measurement": "anti-tumor activity", "setting": "[2]", "result": "measurable anti-tumor activity"}, {"measurement": "survival benefit", "setting": "[3]; 30 mg kg−1 oral, started 7 d post-injection", "result": 7.5, "unit": "days"}, {"measurement": "half-life", "setting": "[6]; female, BALB/c, mouse, plasma, po, 20 mg/kg", "result": 8, "unit": "h"}]}
{"compound": "COc1cc2nccc(Oc3ccc(NC(=O)NC4CC4)c(Cl)c3)c2cc1C(N)=O", "note": "[lenvatinib]", "values": [{"measurement": "anti-tumor activity", "setting": "[2]", "result": "measurable anti-tumor activity"}]}
{"compound": "Cc1cc(C)c(CNC(=O)c2cc(-c3ccc(N4CCN(CCNC(=O)CC56CC7CC(CC(C7)C5)C6)CC4)nc3)cc3c2cnn3C(C)C)c(=O)[nH]1", "note": "[MS1943]", "values": [{"measurement": "WNT-driven GFP reporter expression", "setting": "[9]", "result": "neither small molecule (MS1943 or GSK343) dampened the expression of the WNT reporter"}]}
{"compound": "CCCc1cc(C)[nH]c(=O)c1CNC(=O)c1cc(-c2ccnc(N3CCN(C)CC3)c2)cc2c1cnn2C(C)C", "note": "[GSK343]", "values": [{"measurement": "WNT-driven GFP reporter expression", "setting": "[9]", "result": "neither small molecule (MS1943 or GSK343) dampened the expression of the WNT reporter"}]}
